SMILES strings stand for the structures. Peptide text beside a SMILES is read from it.

In the first assay the test system is microbial enrichment cultures. Put plainly: Ammonium production normalized by growth (NH4+/OD ratio) of microbial enrichment cultivated on individual carbon sources.
Conditions: not given
Type of assay: cell-based.
With `N=C(N)NCCC[C@H](N)C(=O)O` [L-Arginine], the Ammonium/OD ratio was determined as 1.79.
Take `NCCCC[C@H](N)C(=O)O` [L-Lysine]: the Ammonium/OD ratio was 1.02.
On to `O.O=C([O-])C[C@H](O)C(=O)[O-].[Na+].[Na+]` [L-Malic acid disodium salt monohydrate], for which the Ammonium/OD ratio is given as 1.43.
With `N[C@@H](Cc1c[nH]c2ccccc12)C(=O)O` [L-Tryptophan], the Ammonium/OD ratio is recorded as 1.23.
In the case of `CC(=O)[O-].[K+]` [Potassium acetate], the Ammonium/OD ratio turned out to be 0.98.
Same read-out and setting: then `O.O=C([O-])C(=O)[O-].[K+].[K+]` [Potassium oxalate monohydrate], with 1.13.
Same read-out and setting: under `Cl.Cl.NCCCCN` [Putrescine Dihydrochloride] stands 1.20.

Still in this assay, the particulars now being: average of 8 independent cultures amended with varying concentrations of the carbon source; ammonium by colorimetric (Bertholet) assay, growth by OD 600.
Regarding `O=C(O)CC(O)C(=O)O` (racemic) [D,L-Malic Acid], the Ammonium/OD ratio came out at 1.41.
Still for that read-out and setting: under `NCC(=O)NC(CC(=O)O)C(=O)O` (racemic) [Gly-DL-Asp] stands 1.17; under `CC(O)C(=O)[O-].[Na+]` (racemic) [Sodium D,L-Lactate], 0.91; under `O=CC[C@H](O)[C@H](O)CO` [2-Deoxy-D-Ribose], 1.00.
Consider `O=C(O)c1ccc(O)cc1` [4-Hydroxybenzoic Acid], for which the Ammonium/OD ratio is given as 1.31.
In the case of `O=C(CO)[C@@H](O)[C@H](O)[C@@H](O)C(=O)[O-].[K+]` [5-Keto-D-Gluconic Acid potassium salt], the Ammonium/OD ratio is 1.12.
With `Cl.Nc1ncnc2nc[nH]c12.O` [Adenine hydrochloride hydrate], the Ammonium/OD ratio turned out to be 0.93.
On the same count and under the same terms, then `Nc1ncnc2c1ncn2[C@@H]1O[C@H](CO)[C@@H](O)[C@H]1O` [Adenosine], with 1.25; and `OC[C@H]1O[C@@H](O[C@H]2[C@H](O)[C@@H](O)[C@H](O)O[C@@H]2CO)[C@H](O)[C@@H](O)[C@H]1O` [Beta-Lactose], with 0.99.
Turning to `C[N+](C)(C)CC(O)CC(=O)[O-].Cl` (centres unmarked) [Carnitine Hydrochloride], the Ammonium/OD ratio is 1.45.
On to `O=C(O)CC(O)(CC(=O)O)C(=O)O` [Citric Acid], for which the Ammonium/OD ratio was 1.65.
For the compound `Nc1ccn([C@@H]2O[C@H](CO)[C@@H](O)[C@H]2O)c(=O)n1` [Cytidine], the Ammonium/OD ratio came out at 1.64.
On to `Nc1cc[nH]c(=O)n1` [Cytosine], for which the Ammonium/OD ratio came out at 1.37.
Regarding `C[C@@H](N)C(=O)O` [D-Alanine], the Ammonium/OD ratio turned out to be 1.08.
As to `O=C[C@@H](O)[C@H](O)[C@H](O)CO` [D-Arabinose], the Ammonium/OD ratio is listed as 1.21.
With `OC[C@H]1O[C@@H](O[C@H]2[C@H](O)[C@@H](O)[C@H](O)O[C@@H]2CO)[C@H](O)[C@@H](O)[C@@H]1O` [D-Cellobiose], the Ammonium/OD ratio was found to be 1.14.
As for `O=C(CO)[C@@H](O)[C@H](O)[C@H](O)CO` [D-Fructose], the Ammonium/OD ratio is given as 1.42.
As for `O=C[C@H](O)[C@@H](O)[C@@H](O)[C@H](O)CO` [D-Galactose], the Ammonium/OD ratio is listed as 0.93.
For `O.O=C[C@H](O)[C@@H](O)[C@@H](O)[C@H](O)C(=O)O` [D-Galacturonic Acid monohydrate], the Ammonium/OD ratio is reported as 0.92.
Take `O=C([O-])[C@H](O)[C@@H](O)[C@H](O)[C@H](O)CO.[Na+]` [D-Gluconic Acid sodium salt]: the Ammonium/OD ratio turned out to be 1.19.
For `Cl.N[C@H]1C(O)O[C@H](CO)[C@@H](O)[C@@H]1O` (stereo partly drawn) [D-Glucosamine Hydrochloride], the Ammonium/OD ratio was 1.16.
With `O=C[C@H](O)[C@@H](O)[C@H](O)[C@H](O)COP(=O)([O-])[O-].[Na+].[Na+]` [D-Glucose-6-Phosphate sodium salt], the Ammonium/OD ratio amounted to 0.99.
For the compound `O=C[C@H](O)[C@@H](O)[C@H](O)[C@H](O)CO` [D-Glucose], the Ammonium/OD ratio is recorded as 1.33.
As to `O=C[C@H](O)[C@@H](O)[C@H](O)[C@H](O)C(=O)O` [D-Glucuronic Acid], the Ammonium/OD ratio was 1.02.
Still for that read-out and setting: then `OC[C@H]1O[C@H](O[C@H]2[C@H](O)[C@@H](O)[C@H](O)O[C@@H]2CO)[C@H](O)[C@@H](O)[C@@H]1O` [D-Maltose monohydrate], with 0.94.
On to `OC[C@@H](O)[C@@H](O)[C@H](O)[C@H](O)CO` [D-Mannitol], for which the Ammonium/OD ratio stood at 0.90.
Take `O=C[C@@H](O)[C@@H](O)[C@H](O)[C@H](O)CO` [D-Mannose]: the Ammonium/OD ratio was found to be 0.96.
`O.O.O.O.O.OC[C@H]1O[C@H](OC[C@H]2O[C@H](O[C@]3(CO)O[C@H](CO)[C@@H](O)[C@@H]3O)[C@H](O)[C@@H](O)[C@@H]2O)[C@H](O)[C@@H](O)[C@H]1O` [D-Raffinose pentahydrate]: the Ammonium/OD ratio is 1.03.
Same read-out and setting: under `O=C[C@H](O)[C@H](O)[C@H](O)CO` [D-Ribose] stands 1.36; under `N[C@H](CO)C(=O)O` [D-Serine], 1.81.
For `OC[C@@H](O)[C@@H](O)[C@H](O)[C@@H](O)CO` [D-Sorbitol], the Ammonium/OD ratio is 0.82.
The same measure, in the same setting: under `O=C(CO)[C@@H](O)[C@@H](O)[C@H](O)CO` [D-Tagatose] stands 1.14; under `O.O.OC[C@H]1O[C@H](O[C@H]2O[C@H](CO)[C@@H](O)[C@H](O)[C@H]2O)[C@H](O)[C@@H](O)[C@@H]1O` [D-Trehalose dihydrate], 0.82.
Take `O=C[C@H](O)[C@@H](O)[C@H](O)CO` [D-Xylose]: the Ammonium/OD ratio is 1.06.
With `CCO` [Ethanol], the Ammonium/OD ratio is 0.91.
Consider `NC(=O)[C@@H](O)[C@@H](O)[C@H](O)[C@@H](O)C=O` [Glucuronamide], for which the Ammonium/OD ratio is on record as 1.38.
For `NCC(=O)N[C@@H](CCC(=O)O)C(=O)O` [Gly-Glu] (H-Gly-Glu-OH), the Ammonium/OD ratio amounted to 1.12.
On the same count and under the same terms, under `OCC(O)CO` [Glycerol] stands 1.19; under `NCC(=O)O` [Glycine], 0.94; under `O=C(O)CO` [Glycolic Acid], 1.01.
On to `OC[C@H]1O[C@@H](n2cnc3c(O)ncnc32)[C@H](O)[C@@H]1O` [Inosine], for which the Ammonium/OD ratio was 1.44.
As to `C=C(CC(=O)O)C(=O)O` [Itaconic Acid], the Ammonium/OD ratio turned out to be 1.40.
Same read-out and setting: then `C[C@H](N)C(=O)O` [L-Alanine], with 1.45.
Take `O=C[C@H](O)[C@@H](O)[C@@H](O)CO` [L-Arabinose]: the Ammonium/OD ratio is reported as 1.70.
Take `NC(=O)C[C@H](N)C(=O)O` [L-Asparagine]: the Ammonium/OD ratio came out at 1.16.
On the same count and under the same terms, then `N[C@@H](CC(=O)O)C(=O)O` [L-Aspartic Acid], with 1.24; and `NC(=O)NCCC[C@H](N)C(=O)O` [L-Citrulline], with 1.46.
In the case of `Cl.N[C@@H](CS)C(=O)O.O` [L-Cysteine hydrochloride monohydrate], the Ammonium/OD ratio was found to be 1.00.
On the same count and under the same terms, then `C[C@H](O)[C@@H](O)[C@@H](O)[C@H](O)C=O` [L-Fucose], with 1.06; and `N[C@@H](CCC(=O)O)C(=O)[O-].O.[K+]` [L-Glutamic acid monopotassium salt monohydrate], with 0.98; and `NC(=O)CC[C@H](N)C(=O)O` [L-Glutamine], with 1.28.
With `N[C@@H](Cc1c[nH]cn1)C(=O)O` [L-Histidine], the Ammonium/OD ratio was 1.10.
Turning to `CC[C@H](C)[C@H](N)C(=O)O` [L-Isoleucine], the Ammonium/OD ratio turned out to be 1.13.
On the same count and under the same terms, under `CC(C)C[C@H](N)C(=O)O` [L-Leucine] stands 1.07.
On to `CSCC[C@H](N)C(=O)O` [L-Methionine], for which the Ammonium/OD ratio is 1.67.
As to `N[C@@H](Cc1ccccc1)C(=O)O` [L-Phenylalanine], the Ammonium/OD ratio worked out at 1.40.
The same measure, in the same setting: then `O=C(O)[C@@H]1CCCN1` [L-Proline], with 0.94; and `C[C@H](O)[C@H](O)[C@@H](O)[C@@H](O)C=O.O` [L-Rhamnose monohydrate], with 1.09.
Take `N[C@@H](CO)C(=O)O` [L-Serine]: the Ammonium/OD ratio is listed as 1.20.
As for `O=C(CO)[C@@H](O)[C@H](O)[C@@H](O)CO` [L-Sorbose], the Ammonium/OD ratio turned out to be 1.90.
Same read-out and setting: under `C[C@@H](O)[C@H](N)C(=O)O` [L-Threonine] stands 1.35; under `CC(C)[C@H](N)C(=O)O` [L-Valine], 0.94.
The same measure, in the same setting: then `CC(=O)N[C@H]1C(O)O[C@H](CO)[C@@H](O)[C@@H]1O` (stereo partly drawn) [N-Acetyl-D-Glucosamine], with 1.07; and `O=C1NC(=O)C(=O)N1` [Parabanic Acid], with 1.12.
In the case of `C[C@@H](O)C(=O)[O-].[Na+]` [Sodium D-Lactate], the Ammonium/OD ratio was determined as 1.16.
On to `O=C[O-].[Na+]` [Sodium Formate], for which the Ammonium/OD ratio worked out at 0.72.
For the compound `O=C([O-])/C=C/C(=O)[O-].[Na+].[Na+]` [Sodium Fumarate dibasic], the Ammonium/OD ratio is recorded as 0.81.
For the compound `C[C@H](O)C(=O)[O-].[Na+]` [Sodium L-Lactate], the Ammonium/OD ratio is reported as 1.35.
As for `CCCC(=O)[O-].[Na+]` [Sodium butyrate], the Ammonium/OD ratio is reported as 1.04.
As to `CCCCCCCC(=O)[O-].[Na+]` [Sodium octanoate], the Ammonium/OD ratio is recorded as 1.21.
For the compound `CCC(=O)[O-].[Na+]` [Sodium propionate], the Ammonium/OD ratio is reported as 0.94.
For the compound `CC(=O)C(=O)[O-].[Na+]` [Sodium pyruvate], the Ammonium/OD ratio came out at 0.96.
Consider `O.O.O.O.O.O.O=C([O-])CCC(=O)[O-].[Na+].[Na+]` [Sodium succinate dibasic hexahydrate], for which the Ammonium/OD ratio is 1.03.
The same measure, in the same setting: then `OC[C@H]1O[C@@](CO)(O[C@H]2O[C@H](CO)[C@@H](O)[C@H](O)[C@H]2O)[C@@H](O)[C@@H]1O` [Sucrose], with 1.07; and `Cc1cn([C@H]2C[C@H](O)[C@@H](CO)O2)c(=O)[nH]c1=O` [Thymidine], with 1.06; and `Cc1c[nH]c(=O)[nH]c1=O` [Thymine], with 1.13.
